PubChem BioAssay AID328 (DTP/NCI, 2004)
Values joined by “and” are separate entries in the source; they are usually repeats but may differ in a detail not shown here. Equal entries are not always repeated. Inconclusive results and toxic doses are left out.

System: BDF1 mice, P388 leukemia ip, median survival T/C
Assay: NCI In Vivo Anticancer Drug Screen. Data for tumor model P388 Leukemia (intraperitoneal) in B6D2F1 (BDF1) mice
Conditions: endpoint: median survival time, higher = longer survival
Summary of the method: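 In tumour-bearing mice, survival after compound treatment is set against the vehicle group and given as a quotient.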

[1] = dose: 100.0 mg/kg/injection, schedule: Q01DX009 (ip), vehicle: saline with Tween-80
[2] = dose: 200.0 mg/kg/injection, schedule: Q01DX009 (ip), vehicle: saline with Tween-80
[3] = dose: 100.0 mg/kg/injection, schedule: Q04DX003 (ip), vehicle: saline with Tween-80
[4] = dose: 200.0 mg/kg/injection, schedule: Q04DX003 (ip), vehicle: saline with Tween-80
[5] = dose: 6.25 mg/kg/injection, schedule: Q01DX009 (ip), vehicle: saline with Tween-80
[6] = dose: 12.5 mg/kg/injection, schedule: Q01DX009 (ip), vehicle: saline with Tween-80
[7] = dose: 400.0 mg/kg/injection, schedule: Q04DX003 (ip), vehicle: saline with Tween-80

COC(=O)C1CC2C(CCC3C(C)(C(=O)OC)CCCC23C)C(=O)C1(O)C(C)C (stereo not given)
T/C [1]: 100 % of control
T/C [2]: 100 % of control
T/C (dose: 400.0 mg/kg/injection, schedule: Q01DX009 (ip), vehicle: saline with Tween-80): 90 % of control

CC(=O)NS(=O)(=O)c1ccc(NC(=O)c2ccccc2C(=O)O)cc1
T/C (dose: 50.0 mg/kg/injection, schedule: Q04DX003 (ip), vehicle: saline with Tween-80): 100 % of control
T/C [3]: 100 % of control
T/C [4]: 100 % of control

COC1C(O)CC(=O)OC(C)C/C=C/C=C/C(OC2CCC(N(C)C)C(C)O2)C(C)CC(CC=O)C1OC1OC(C)C(OC2CC(C)(O)C(O)C(C)O2)C(N(C)C)C1O (stereo not given)
T/C [5]: 102 % of control
T/C [6]: 94 % of control
T/C (dose: 25.0 mg/kg/injection, schedule: Q01DX009 (ip), vehicle: saline with Tween-80): 100 % of control

CN(C)c1ccc(/C=C/c2ccnc3cc(Cl)ccc23)cc1
T/C (dose: 50.0 mg/kg/injection, schedule: Q01DX009 (ip), vehicle: saline with Tween-80): 118 % of control
T/C [1]: 100 % of control
T/C [2]: 93 % of control

CCOC(=O)N(C)c1ccc(Cl)cc1C(N)=O
T/C (dose: 100.0 mg/kg/injection, schedule: Q04DX003 (ip), vehicle: Klucel (hydroxypropylcellulose) (HPC)): 100 % of control
T/C (dose: 200.0 mg/kg/injection, schedule: Q04DX003 (ip), vehicle: Klucel (hydroxypropylcellulose) (HPC)): 94 % of control
T/C (dose: 400.0 mg/kg/injection, schedule: Q04DX003 (ip), vehicle: Klucel (hydroxypropylcellulose) (HPC)): 115 % of control

CC[n+]1c(-c2ccccc2)c2cc(N)ccc2c2ccc(N)cc21 (tested in a mixture with another compound)
T/C (dose: 25.0 mg/kg/injection, schedule: Q01DX009 (ip), vehicle: other): 112 % of control
T/C (dose: 50.0 mg/kg/injection, schedule: Q01DX009 (ip), vehicle: other): 112 % of control

CCCCN(CCCC)CC(O)c1cc(Cl)cc2cccnc12 (stereo not given)
T/C (dose: 3.12 mg/kg/injection, schedule: Q01DX009 (ip), vehicle: saline with Tween-80): 100 % of control
T/C [5]: 104 % of control
T/C [6]: 108 % of control
T/C (dose: 25.0 mg/kg/injection, schedule: Q01DX009 (ip), vehicle: Klucel (hydroxypropylcellulose) (HPC)): 87 % of control and 92 % of control
T/C (dose: 25.0 mg/kg/injection, schedule: Q04DX003 (ip), vehicle: Klucel (hydroxypropylcellulose) (HPC)): 108 % of control
T/C (dose: 50.0 mg/kg/injection, schedule: Q01DX009 (ip), vehicle: Klucel (hydroxypropylcellulose) (HPC)): 100 % of control and 108 % of control
T/C (dose: 50.0 mg/kg/injection, schedule: Q04DX003 (ip), vehicle: Klucel (hydroxypropylcellulose) (HPC)): 100 % of control

CCc1ccc(NC(=O)c2ccccc2Cl)cc1
T/C [3]: 100 % of control
T/C [4]: 91 % of control
T/C [7]: 91 % of control

Cn1ccc2nncn2c1=O
T/C (dose: 100.0 mg/kg/injection, schedule: Q01DX001 (ip), vehicle: saline with Tween-80): 115 % of control
T/C (dose: 200.0 mg/kg/injection, schedule: Q01DX001 (ip), vehicle: saline with Tween-80): 95 % of control
T/C (dose: 400.0 mg/kg/injection, schedule: Q01DX001 (ip), vehicle: saline with Tween-80): 98 % of control

O=C(/C=C/c1ccc(O)cc1)c1ccccc1
T/C [3]: 118 % of control
T/C [4]: 168 % of control
T/C [7]: 113 % of control

Clc1ccc(-c2cc[s+]s2)cc1
T/C (dose: 3.12 mg/kg/injection, schedule: Q01DX009 (ip), vehicle: water): 94 % of control
T/C (dose: 3.12 mg/kg/injection, schedule: Q04DX003 (ip), vehicle: water): 111 % of control
T/C (dose: 6.25 mg/kg/injection, schedule: Q01DX009 (ip), vehicle: water): 110 % of control
T/C (dose: 6.25 mg/kg/injection, schedule: Q04DX003 (ip), vehicle: water): 100 % of control
T/C (dose: 12.5 mg/kg/injection, schedule: Q01DX009 (ip), vehicle: water): 119 % of control
T/C (dose: 12.5 mg/kg/injection, schedule: Q04DX003 (ip), vehicle: water): 97 % of control
T/C (dose: 25.0 mg/kg/injection, schedule: Q01DX009 (ip), vehicle: water): 119 % of control
T/C (dose: 25.0 mg/kg/injection, schedule: Q04DX003 (ip), vehicle: water): 96 % of control and 117 % of control
T/C (dose: 50.0 mg/kg/injection, schedule: Q01DX009 (ip), vehicle: water): 108 % of control
T/C (dose: 50.0 mg/kg/injection, schedule: Q04DX003 (ip), vehicle: water): 90 % of control and 100 % of control
T/C (dose: 100.0 mg/kg/injection, schedule: Q04DX003 (ip), vehicle: water): 98 % of control

CC(=O)OC(C)C1C2=C(C(=O)CC1(C)O)C(=O)c1c(ccc(-c3ccc4c(c3O)C(=O)C3=C(C4=O)C(C(C)OC(C)=O)C(C)(O)CC3=O)c1O)C2=O (stereo not given)
T/C [5]: 122 % of control
